# Laboratory results published in PubChem BioAssay (NCI).
#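 Five concentrations, 48 hours, 96-well plates. The concentration for 50% growth inhibition is given as GI50. At the TGI there is no net growth.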
# Experiments:
# Experiment in all cases: NCI tumour cell line growth inhibition, 48 h
# IGROV1 ovarian = test system: IGROV1 ovarian
# NCI-H23 lung = test system: NCI-H23 lung
# MDA-MB-231 breast = test system: MDA-MB-231 breast
# HCC-2998 colon = test system: HCC-2998 colon
# NCI-H522 lung = test system: NCI-H522 lung
# SW-620 colon = test system: SW-620 colon
# HL-60(TB) leukemia = test system: HL-60(TB) leukemia
# TK-10 renal = test system: TK-10 renal
# HOP-92 NSCLC = test system: HOP-92 NSCLC
# HT29 colon = test system: HT29 colon
# SR leukemia = test system: SR leukemia
# LOX IMVI melanoma = test system: LOX IMVI melanoma
# SK-MEL-2 melanoma = test system: SK-MEL-2 melanoma
# NCI-H460 lung = test system: NCI-H460 lung
# HCT-116 colon = test system: HCT-116 colon
# A549 NSCLC = test system: A549 NSCLC
# UACC-257 melanoma = test system: UACC-257 melanoma
# K-562 leukemia = test system: K-562 leukemia
# SNB-19 CNS = test system: SNB-19 CNS
# U251 CNS = test system: U251 CNS
# OVCAR-8 ovarian = test system: OVCAR-8 ovarian
# HOP-62 NSCLC = test system: HOP-62 NSCLC
# KM12 colon = test system: KM12 colon
# CAKI-1 renal = test system: CAKI-1 renal
# UACC-62 melanoma = test system: UACC-62 melanoma
# SN12C renal = test system: SN12C renal
# EKVX NSCLC = test system: EKVX NSCLC
# UO-31 renal = test system: UO-31 renal
# ACHN renal = test system: ACHN renal
# MDA-MB-435 = test system: MDA-MB-435
# NCI-H226 lung = test system: NCI-H226 lung
# SF-539 CNS = test system: SF-539 CNS
# OVCAR-4 ovarian = test system: OVCAR-4 ovarian
# SF-268 CNS = test system: SF-268 CNS
# OVCAR-3 ovarian = test system: OVCAR-3 ovarian
# SK-MEL-5 melanoma = test system: SK-MEL-5 melanoma
# DU-145 prostate = test system: DU-145 prostate
# SK-OV-3 ovarian = test system: SK-OV-3 ovarian
# CCRF-CEM leukemia = test system: CCRF-CEM leukemia
# SNB-75 CNS = test system: SNB-75 CNS
# 786-0 renal = test system: 786-0 renal
# COLO 205 colon = test system: COLO 205 colon
# PC-3 prostate = test system: PC-3 prostate
# M14 melanoma = test system: M14 melanoma
# MALME-3M melanoma = test system: MALME-3M melanoma
# HCT-15 colon = test system: HCT-15 colon
# NCI/ADR-RES ovarian = test system: NCI/ADR-RES ovarian
# MCF7 breast = test system: MCF7 breast
# SK-MEL-28 melanoma = test system: SK-MEL-28 melanoma
# OVCAR-5 ovarian = test system: OVCAR-5 ovarian
# A498 renal = test system: A498 renal
# HS 578T breast = test system: HS 578T breast
# SF-295 CNS = test system: SF-295 CNS
# MOLT-4 leukemia = test system: MOLT-4 leukemia
# BT-549 breast = test system: BT-549 breast
# T-47D breast = test system: T-47D breast
compound,measurement,setting,value
CC(Nc1c(C#N)cnc2ccc(-c3cncc(O)c3)cc12)c1ccccc1 (configuration not stated),GI50,IGROV1 ovarian,0.948 µM
same,TGI,IGROV1 ovarian,3.91 µM
same,GI50,NCI-H23 lung,1.86 µM
same,TGI,NCI-H23 lung,7.88 µM
same,GI50,MDA-MB-231 breast,1.67 µM
same,TGI,MDA-MB-231 breast,11.9 µM
same,GI50,HCC-2998 colon,3.73 µM
same,TGI,HCC-2998 colon,14.8 µM
same,GI50,NCI-H522 lung,2.31 µM
same,TGI,NCI-H522 lung,13.5 µM
same,GI50,SW-620 colon,3.56 µM
same,TGI,SW-620 colon,11.4 µM
same,GI50,HL-60(TB) leukemia,4.22 µM
same,TGI,HL-60(TB) leukemia,> 100 µM
same,GI50,TK-10 renal,4.45 µM
same,TGI,TK-10 renal,50 µM
same,GI50,HOP-92 NSCLC,0.409 µM
same,TGI,HOP-92 NSCLC,6.02 µM
same,GI50,HT29 colon,18.1 µM
same,TGI,HT29 colon,> 100 µM
same,GI50,SR leukemia,2.26 µM
same,TGI,SR leukemia,> 100 µM
same,GI50,LOX IMVI melanoma,1.31 µM
same,TGI,LOX IMVI melanoma,8.51 µM
same,GI50,SK-MEL-2 melanoma,2.03 µM
same,TGI,SK-MEL-2 melanoma,6.44 µM
same,GI50,NCI-H460 lung,2.57 µM
same,TGI,NCI-H460 lung,11.4 µM
same,GI50,HCT-116 colon,2.4 µM
same,TGI,HCT-116 colon,12.4 µM
same,GI50,A549 NSCLC,3.57 µM
same,TGI,A549 NSCLC,47.3 µM
same,GI50,UACC-257 melanoma,4.32 µM
same,TGI,UACC-257 melanoma,45.6 µM
same,GI50,K-562 leukemia,2.51 µM
same,TGI,K-562 leukemia,> 100 µM
same,GI50,SNB-19 CNS,1.9 µM
same,TGI,SNB-19 CNS,7.66 µM
same,GI50,U251 CNS,1.88 µM
same,TGI,U251 CNS,17.1 µM
same,GI50,OVCAR-8 ovarian,1.83 µM
same,TGI,OVCAR-8 ovarian,15.4 µM
same,GI50,HOP-62 NSCLC,2.39 µM
same,TGI,HOP-62 NSCLC,16 µM
same,GI50,KM12 colon,3.09 µM
same,TGI,KM12 colon,12.2 µM
same,GI50,CAKI-1 renal,2.24 µM
same,TGI,CAKI-1 renal,13.5 µM
same,GI50,UACC-62 melanoma,1.7 µM
same,TGI,UACC-62 melanoma,4.16 µM
same,GI50,SN12C renal,0.721 µM
same,TGI,SN12C renal,6.68 µM
same,GI50,EKVX NSCLC,2.07 µM
same,TGI,EKVX NSCLC,12.6 µM
same,GI50,UO-31 renal,0.408 µM
same,TGI,UO-31 renal,5.61 µM
same,GI50,ACHN renal,1.4 µM
same,TGI,ACHN renal,10.7 µM
same,GI50,MDA-MB-435,2.94 µM
same,TGI,MDA-MB-435,15.5 µM
same,GI50,NCI-H226 lung,1.99 µM
same,TGI,NCI-H226 lung,13.2 µM
same,GI50,SF-539 CNS,2.14 µM
same,TGI,SF-539 CNS,11 µM
same,GI50,OVCAR-4 ovarian,1.59 µM
same,TGI,OVCAR-4 ovarian,9.49 µM
same,GI50,SF-268 CNS,1.99 µM
same,TGI,SF-268 CNS,12 µM
same,GI50,OVCAR-3 ovarian,1.05 µM
same,TGI,OVCAR-3 ovarian,5.84 µM
same,GI50,SK-MEL-5 melanoma,1.24 µM
same,TGI,SK-MEL-5 melanoma,2.57 µM
same,GI50,DU-145 prostate,1.48 µM
same,TGI,DU-145 prostate,10.6 µM
same,GI50,SK-OV-3 ovarian,3.38 µM
same,TGI,SK-OV-3 ovarian,10.7 µM
same,GI50,CCRF-CEM leukemia,2.4 µM
same,TGI,CCRF-CEM leukemia,> 100 µM
same,GI50,SNB-75 CNS,0.961 µM
same,TGI,SNB-75 CNS,17.6 µM
same,GI50,786-0 renal,2.74 µM
same,TGI,786-0 renal,10.4 µM
same,GI50,COLO 205 colon,14.9 µM
same,TGI,COLO 205 colon,36.1 µM
same,GI50,PC-3 prostate,1.65 µM
same,TGI,PC-3 prostate,> 100 µM
same,GI50,M14 melanoma,2.08 µM
same,TGI,M14 melanoma,11.6 µM
same,GI50,MALME-3M melanoma,0.407 µM
same,TGI,MALME-3M melanoma,3.4 µM
same,GI50,HCT-15 colon,1.69 µM
same,TGI,HCT-15 colon,11.5 µM
same,GI50,NCI/ADR-RES ovarian,3.36 µM
same,TGI,NCI/ADR-RES ovarian,23.5 µM
same,GI50,MCF7 breast,1.91 µM
same,TGI,MCF7 breast,10.2 µM
same,GI50,SK-MEL-28 melanoma,1.86 µM
same,TGI,SK-MEL-28 melanoma,10.8 µM
same,GI50,OVCAR-5 ovarian,4.3 µM
same,TGI,OVCAR-5 ovarian,30.7 µM
same,GI50,A498 renal,2.72 µM
same,TGI,A498 renal,18 µM
same,GI50,HS 578T breast,1.08 µM
same,TGI,HS 578T breast,4.82 µM
same,GI50,SF-295 CNS,2.87 µM
same,TGI,SF-295 CNS,11.7 µM
same,GI50,MOLT-4 leukemia,2.11 µM
same,TGI,MOLT-4 leukemia,> 100 µM
same,GI50,BT-549 breast,0.547 µM
same,TGI,BT-549 breast,4.54 µM
same,GI50,T-47D breast,1.68 µM
same,TGI,T-47D breast,13.8 µM
